The subject of this assay is Golden Delicious apples. Briefly: Usability of the organic nitrogen compound for rest-breaking. The format is in vivo. The note with it: South Africa. From the text:
It is to be understood that not all compounds may work on all deciduous fruit species in all orchards.

choline borate: the “Usability on Golden Delicious apples” value is reported as “could not be used”.

Source of the values: patent US7030060B1, “Rest-breaking composition and use thereof” (Akzo Nobel N.V., priority 1999, dated 2006).
